pIC50: −log10 of the molar value. Where no end group is shown, it is not given here.
How the values were obtained:
[1] = system: EDA-containing fibronectin; assay: Endogenous (cellular) fibronectin assembly assay, human proximal tubular epithelial cells (HK-2); assay type: cell-based; details: doses up to 500 nM; for pIC50: endogenous EDA+-fibronectin, human proximal tubular epithelial cells, read-out: IC50 of fibronectin assembly inhibition
Source text: Endogenous (cellular) fibronectin assembly assay: This immunochemical assay measures the ECM incorporation of EDA-containing fibronectin synthesized by human fibroblasts and human proximal tubular epithelial cells. Human proximal epithelial cells, HK-2 cells, were obtained from ATCC (CRL-2190). The EDA+ fibronectin is a splice variant synthesized and secreted by a variety of cells mostly during embryonic development and during wound healing, ECM remodeling, or fibrotic conditions in the adult. Fibroblasts (AH1F) were cultured in DMEM (Gibco) containing 10% fetal calf serum, and human proximal tubular epithelial cells (HK-2) were cultured in keratinocyte serum free medium (KSFM, containing pituitary extract and rEGF, Invitrogen/Thermo Fisher). Both media also contained 2.5 mM glutamine, 100 IU/ml penicillin, and 100 μg/ml streptomycin. Confluent cells were trypsinized and resuspended in DMEM containing 2% FCS in DMEM for AH1F cells or KSFM for HK-2 cells, at densities that allow delivery of 60,000 AH1F or 20,000 HK-2 cells in 90 μl per well in black-walled, flat transparent bottom 96-well plates. Cells were incubated for 2 h at 37° C. with 5% CO2 and checked microscopically for spreading and confluence. Peptides were then added in 10 μl volumes at 10-fold the desired final concentration. Cell monolayers in microplates were incubated overnight in a humidified 37° C., 5% CO2 chamber. After approximately 22 h, 10 μl of AlamarBlue® was added to the cell monolayers and incubated at 37° C. for 2 h to assess cell viability. Fluorescence of AlamarBlue® was read at 555 nm excitation and 585 nm emission. Microplates were washed twice with HBSS containing Ca^2+, Mg^2+ and 50 μl/well of 4% paraformaldehyde (PFA) in PBS was then added for 10 min at room temperature. […] Similar to the measurement of exogenous A488-FN fluorescence, A488-EDA fluorescence was read using microplate reader equipped with bottom-readout capabilities at 485 nm excitation and 525 nm emission. Fluorescence of wells to which A488-IgG was added, i.e., background green fluorescence from non-specific IgG binding and from the cell monolayer was subtracted from fluorescence values of wells incubated with A488-EDA. Data is presented for fibronectin fibrillogenesis or cell viability as percent of fluorescence values (AlexaFluor® 488 fluorescence or AlamarBlue®, respectively) for wells with no peptides.
To determine whether PEG-FUD retained its ability to inhibit fibronectin fibrillogenesis, PEG-FUD and FUD were compared in cell-based fibronectin matrix assembly assays. The ability of PEG-FUD to inhibit the incorporation of exogenous fibronectin derived from plasma and also of fibronectin endogenously produced by the cultured cells was measured, since fibrosis is likely to contain fibronectin from both sources. […]

breast cancer = assay: Murine models of breast cancer; details: mouse, in vivo

Chain of EDA-containing fibronectin (P02751 32-608 limits assumed): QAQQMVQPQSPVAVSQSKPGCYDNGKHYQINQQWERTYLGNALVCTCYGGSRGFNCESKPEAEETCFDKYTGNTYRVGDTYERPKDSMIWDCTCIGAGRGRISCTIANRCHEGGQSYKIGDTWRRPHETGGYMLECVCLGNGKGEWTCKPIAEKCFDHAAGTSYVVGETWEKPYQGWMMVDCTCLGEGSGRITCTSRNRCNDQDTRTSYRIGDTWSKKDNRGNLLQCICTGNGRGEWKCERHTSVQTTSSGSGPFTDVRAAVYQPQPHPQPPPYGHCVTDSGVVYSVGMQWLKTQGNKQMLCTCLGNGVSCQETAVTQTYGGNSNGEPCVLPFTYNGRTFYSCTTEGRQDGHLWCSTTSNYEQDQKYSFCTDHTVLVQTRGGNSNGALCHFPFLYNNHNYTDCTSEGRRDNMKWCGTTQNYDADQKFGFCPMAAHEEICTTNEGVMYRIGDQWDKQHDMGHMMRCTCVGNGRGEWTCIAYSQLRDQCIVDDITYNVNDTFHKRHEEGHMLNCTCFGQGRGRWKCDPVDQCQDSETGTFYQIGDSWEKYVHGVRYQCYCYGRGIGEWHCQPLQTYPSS

FUD: 49 amino acid FUD peptide, SEQ ID NO: 1, recombinantly expressed, His-tag removed; inhibitor of fibronectin fibrillogenesis (KDQSPLAGESGETEYITEVYGNQQNPVDIDKKLPNETGFSGNMVETEDT; human) [reference compound]
inhibition of fibronectin assembly by proximal tubular epithelial cells [1]: 50%
pIC50 [1]: ~7.52
effect on tumor volume (breast cancer): inhibit tumor volume

PEG-FUD: PEGylated FUD prepared as in Example 1, PEG size not stated; approximately 27 kDa by mass spectrometry, likely the 20 kDa conjugate (KDQSPLAGESGETEYITEVYGNQQNPVDIDKKLPNETGFSGNMVETEDT; not fully specified (N-terminus); also: PEG size not given here)
inhibition of fibronectin assembly by proximal tubular epithelial cells [1]: 50%
pIC50 [1]: ~7.52
effect on tumor volume (breast cancer): inhibit tumor volume

From patent US10828372B2, “Compositions and methods for the inhibition of fibrosis” (WISCONSIN ALUMNI RESEARCH FOUNDATION, priority 2017, dated 2020)
